Measurements taken from patent US11213512B2, “Bis-amino acid based compound and use thereof” (THE CURATORS OF THE UNIVERSITY OF MISSOURI, priority 2016, dated 2022).

What was measured:
Tet^R E. coli = experiment: Recovery of tetracycline activity (co-administration, MIC of tetracycline); type: cell-based, Escherichia coli
Method: MIC experiments were performed as described in the Clinical and Laboratory Standards Institute (CLSI) standard microdilution protocols. Bacteria was grown overnight from one CFU in media without antibiotics. Tet^R E. coli was grown in media containing 100 μg/mL Ampicillin. On the day of experiment, bacteria were knocked back to O.D. 600 nm=0.550 in the same media. These exponential phase bacteria were then diluted in antibiotics-free media to get […]. In a 96-well plate either L. B. Miller or MHII media was added followed by serially diluted compounds 1-11, tetracycline, or ampicillin. All the tryptophan based compounds were dissolved in DMSO and the final concentration of DMSO in each well was kept constant at 0.5% (v/v).
For the combination experiments, first, the BT or control was added to the media in the well followed by the antibiotics. The contents of the well were mixed before adding 20 μL of bacteria to get 4×10^5 CFU/mL per well. The plates were incubated at 37° C., 200 RPM for 24 hours before collecting results on the Biotek Cytation 3 plate reader. No more than three plates were stacked on top of each other at a time. Optical density of the wells was determined at λ=600 nm. Cells alone were considered as 0% inhibition and media alone was considered as 100% inhibition. Any inhibition greater than 80% was considered as the MIC. The results were reproduced three times before reporting.
First, MICs were determined for compounds 2, 3, 5, 6, 7, and 10 against Tet^R E. coli. Compounds 6 (para-Ph) and 7 (n-C3) were also included as controls. The MICs against Tet^R E. coli were refined compared to the power series and are reported as a range in Table 1 above. The MICs of tetracycline and ampicillin against Tet^R E. coli were 900±100 μM and >1000 μM, respectively. For comparison, the MIC for tetracycline against non-resistant E. coli K-12 is ˜3 μM. Ampicillin was used to maintain selective pressure for the expression of pBR322 plasmid. Ampicillin was omitted from experiments that contained tetracycline. Next, the MIC of tetracycline was determined when co-administered with 2, 3, 5, 6, 7, or 10. The results are represented as the MIC of tetracycline in the presence of the indicated BTs. The fold-recovery was determined by dividing the MIC of tetracycline when used alone by the MIC of tetracycline determined in the presence of the compounds.
The fractional inhibitory concentration (FIC) is often used as a measure of synergism or antagonism in comparing two or more compounds (Berenbaum, Pharmacol. Rev. 1989, 41, 93-141). The FIC is the sum of the fraction of the MIC for each compound used. Synergy is defined broadly as FIC<1, or more conservatively as FIC≤0.5. Under the broad definition, all compounds tested can be said to have at least moderate synergy with tetracycline. All arene-based compounds fit the more conservative definition of synergy with FIC values of 0.5 or less at the tested concentrations.

HEK-293 cells = experiment: Cytotoxicity to mammalian cells, XTT assay; type: cell-based, human; details: 24 h; for survival of HEK-293 (in words): two-fold increase over MIC concentration; for cytotoxicity to HEK-293 (in words): at MIC against Tet^R E. coli (2: 48, 7: 128, 10: 10 μM)
Method: (§1) It was initially hypothesized that antimicrobial activity resulted from membrane disruption. Membrane active compounds are often cytotoxic to mammalian cells (Shai, Biopolymers 2002, 66, 236-48; Shai, et al., Curr. Protein Pept. Sci. 2006, 7, 479-86). The survival of three mammalian epithelial cell lines was assayed for 2, 3, 5, and 10. […] The cell lines studied were human embryonic kidney (HEK-293), human cervix epithelial (HeLa, ATCC Accession No. CCL-2), and Cercopithecus aethiops kidney (Cos-7, ATCC Accession No. CRL 1651). HeLa cells were acquired from ATCC. Cos-7 and HEK-293 cells were donated by colleagues. Cell lines were regularly maintained in growth media containing DMEM (ATCC), 10% fetal bovine serum (FBS, ATCC) and 1% penicillin-streptomycin solution (ATCC). Adherent HEK-293, HeLa and Cos-7 cells were trypsinized using 0.25% (w/v) trypsin-EDTA (Sigma-Aldrich), suspended in a fresh media and diluted to get a concentration of 3×10^5 cells/ml. Cells were seeded in a 96-well plate (100 μL/well) to get 3×10^4 cells/well. The plates were incubated for 24 hours at 5% CO2 and 37° C. to reach a confluency of 80-90%.
(§2) In a sterile 1.5 mL micro-centrifuge tube, compounds 2, 3, 5, 6, 7 and 10 (0.5% DMSO) were mixed with assay media (DMEM+10% FBS) and serially diluted by 2-fold each to get 2[MIC], [MIC], ½[MIC] and ¼ [MIC] concentrations. A control containing 0.5% DMSO was also prepared. After 24 hours, the spent media in the 96-well plate containing HEK-293, HeLa and Cos-7 cells (90% confluency) was replaced with 100 μL media containing the compounds 2, 3, 5, 6, 7 and 10 at various concentrations. The cells were incubated at 37° C. and 5% CO2 for 24 hours before performing XTT assay (Sigma-Aldrich). The XTT assay was performed according to the manufacturer's protocol. After 24 hours of treatment with compounds, the media was replaced with PBS and 25 μL XTT was added to each well. The XTT assay works by the reduction of tetrazolium compound by alive cells to the colored soluble formazan product. The absorbance of the product was measured at 450 nm (XTT) and 690 nm (background). Percent survival was calculated by comparing the average absorbance of cells treated with compounds 2, 3, 5, 6, 7, and 10 to that of cells alone. Two replicates for each treatment were determined. Average percent survival and standard deviation were calculated.
(§3) Cells were cultured for 24 h in 96-well plates and treated with media containing concentrations using [MIC] and [MIC]×2 determined previously for Tet^R E. coli. The number of surviving cells was determined using an XTT assay (Sigma-Aldrich); the results are represented as percent survival in FIG. 2. Cells alone were used as controls and established 100% survival. The data represent two replicates of three trials and the error bars represent the standard deviation.

HeLa cells = experiment: Cytotoxicity to mammalian cells, XTT assay; type: cell-based, human; details: 24 h; for survival of HeLa (in words): two-fold increase over MIC concentration; for cytotoxicity to HeLa (in words): at MIC against Tet^R E. coli (2: 48, 7: 128, 10: 10 μM)
Method: as §1, §2, §3

[1] = compound at ¼ MIC (2: 12, 3: 7, 5: 14, 6: 30, 7: 30, 10: 2.5 μM)
[2] = compound at ¼ MIC (2: 12, 3: 7, 5: 14, 6: 30, 7: 30, 10: 2.5 μM), tetracycline alone 900 μM
[3] = compound at ½ MIC (2: 24, 3: 14, 5: 28, 6: 60, 7: 60, 10: 5 μM)
[4] = compound at ½ MIC (2: 24, 3: 14, 5: 28, 6: 60, 7: 60, 10: 5 μM), tetracycline alone 900 μM
[5] = at MIC against Tet^R E. coli (2: 48, 3: 28, 5: 56, 6: 120, 7: 128, 10: 10 μM)
[6] = at twice the MIC (FIG. 3 legend: 2: 96, 3: 56, 5: 112, 6: 240, 7: 256, 10: 20 μM)
[7] = compound at 5 μM (single comparison concentration)
[8] = compound at 14 μM (single comparison concentration)

Cl.Cl.N[C@@H](Cc1c[nH]c2ccccc12)C(=O)Nc1ccccc1NC(=O)[C@@H](N)Cc1c[nH]c2ccccc12 [Compound 5, (2S,2′S)-1,1′-(1,2-Phenylenebis(azanediyl))bis(3-(1H-indol-3-yl)-1-oxopropan-2-aminium) chloride]
FIC (fractional inhibitory concentration) with tetracycline (Tet^R E. coli; [1]): 0.50
MIC [Tet] (tetracycline in the presence of the compound) (Tet^R E. coli; [1]): 225 µM
Fold Recovery of tetracycline activity (Tet^R E. coli; [2]): 4-fold
FIC (fractional inhibitory concentration) with tetracycline (Tet^R E. coli; [3]): 0.63
MIC [Tet] (tetracycline in the presence of the compound) (Tet^R E. coli; [3]): 112.5 µM
Fold Recovery of tetracycline activity (Tet^R E. coli; [4]): 8-fold
percent survival HEK-293 (HEK-293 cells; [5]): 100%
survival of HEK-293 (in words) (HEK-293 cells): unaffected
percent survival HeLa (HeLa cells; [5]): 100%
survival of HeLa (in words) (HeLa cells): unaffected

Cl.Cl.N[C@H](Cc1c[nH]c2ccccc12)C(=O)Nc1cccc(NC(=O)[C@H](N)Cc2c[nH]c3ccccc23)c1 [Compound 3, (2R,2′R)-1,1′-(1,3-Phenylenebis(azanediyl))bis(3-(1H-indol-3-yl)-1-oxopropan-2-aminium) chloride]
FIC (fractional inhibitory concentration) with tetracycline (Tet^R E. coli; [1]): 0.50
MIC [Tet] (tetracycline in the presence of the compound) (Tet^R E. coli; [1]): 225 µM
Fold Recovery of tetracycline activity (Tet^R E. coli; [2]): 4-fold
FIC (fractional inhibitory concentration) with tetracycline (Tet^R E. coli; [3]): 0.63
MIC [Tet] (tetracycline in the presence of the compound) (Tet^R E. coli; [3]): 112.5 µM
Fold Recovery of tetracycline activity (Tet^R E. coli; [4]): 8-fold
percent survival HEK-293 (HEK-293 cells; [5]): 100%
percent survival HEK-293 (HEK-293 cells; [6]): 62%
percent survival HeLa (HeLa cells; [5]): 100%
percent survival HeLa (HeLa cells; [6]): 29%

Cl.Cl.N[C@@H](Cc1c[nH]c2ccccc12)C(=O)NCCCNC(=O)[C@@H](N)Cc1c[nH]c2ccccc12 [Compound 7, (2S,2′S)-1,1′-(Propane-1,3-diylbis(azanediyl))bis(3-(1H-indol-3-yl)-1-oxopropan-2-aminium) chloride]
FIC (fractional inhibitory concentration) with tetracycline (Tet^R E. coli; [7]): 0.54
Fold Recovery of tetracycline activity (Tet^R E. coli; [7]): 2-fold
MIC [Tet] (tetracycline in the presence of the compound) (Tet^R E. coli; [7]): 450 µM
FIC (fractional inhibitory concentration) with tetracycline (Tet^R E. coli; [1]): 0.38
MIC [Tet] (tetracycline in the presence of the compound) (Tet^R E. coli; [1]): 112.5 µM
Fold Recovery of tetracycline activity (Tet^R E. coli; [2]): 8-fold
FIC (fractional inhibitory concentration) with tetracycline (Tet^R E. coli; [3]): 0.63
MIC [Tet] (tetracycline in the presence of the compound) (Tet^R E. coli; [3]): 112.5 µM
Fold Recovery of tetracycline activity (Tet^R E. coli; [4]): 8-fold
cytotoxicity to HEK-293 (in words) (HEK-293 cells): minimally toxic
cytotoxicity to HeLa (in words) (HeLa cells): moderately toxic

Cl.Cl.N[C@@H](Cc1c[nH]c2ccccc12)C(=O)Nc1ccc(NC(=O)[C@@H](N)Cc2c[nH]c3ccccc23)cc1 [Compound 6, (2S,2′S)-1,1′-(1,4-Phenylenebis(azanediyl))bis(3-(1H-indol-3-yl)-1-oxopropan-2-aminium) chloride]
FIC (fractional inhibitory concentration) with tetracycline (Tet^R E. coli; [8]): 0.62
Fold Recovery of tetracycline activity (Tet^R E. coli; [8]): 2-fold
MIC [Tet] (tetracycline in the presence of the compound) (Tet^R E. coli; [8]): 450 µM
FIC (fractional inhibitory concentration) with tetracycline (Tet^R E. coli; [1]): 0.50
MIC [Tet] (tetracycline in the presence of the compound) (Tet^R E. coli; [1]): 225 µM
Fold Recovery of tetracycline activity (Tet^R E. coli; [2]): 4-fold
FIC (fractional inhibitory concentration) with tetracycline (Tet^R E. coli; [3]): 0.63
MIC [Tet] (tetracycline in the presence of the compound) (Tet^R E. coli; [3]): 112.5 µM
Fold Recovery of tetracycline activity (Tet^R E. coli; [4]): 8-fold
percent survival HEK-293 (HEK-293 cells; [5]): 100%
percent survival HEK-293 (HEK-293 cells; [6]): 61%
percent survival HeLa (HeLa cells; [5]): 100%
percent survival HeLa (HeLa cells; [6]): 29%

Cl.Cl.N[C@@H](Cc1c[nH]c2ccccc12)C(=O)Nc1cccc(NC(=O)[C@@H](N)Cc2c[nH]c3ccccc23)c1 [Compound 2, (2S,2′S)-1,1′-(1,3-Phenylenebis(azanediyl))bis(3-(1H-indol-3-yl)-1-oxopropan-2-aminium) chloride]
FIC (fractional inhibitory concentration) with tetracycline (Tet^R E. coli; [8]): 0.42
Fold Recovery of tetracycline activity (Tet^R E. coli; [8]): 8-fold
MIC [Tet] (tetracycline in the presence of the compound) (Tet^R E. coli; [8]): 112.5 µM
FIC (fractional inhibitory concentration) with tetracycline (Tet^R E. coli; [1]): 0.38
MIC [Tet] (tetracycline in the presence of the compound) (Tet^R E. coli; [1]): 112.5 µM
Fold Recovery of tetracycline activity (Tet^R E. coli; [2]): 8-fold
FIC (fractional inhibitory concentration) with tetracycline (Tet^R E. coli; [3]): 0.56
MIC [Tet] (tetracycline in the presence of the compound) (Tet^R E. coli; [3]): 56.25 µM
Fold Recovery of tetracycline activity (Tet^R E. coli; [4]): 16-fold
percent survival HEK-293 (HEK-293 cells; [5]): 100%
cytotoxicity to HEK-293 (in words) (HEK-293 cells): no cytotoxicity
survival of HEK-293 (in words) (HEK-293 cells): unaffected
percent survival HeLa (HeLa cells; [5]): 100%
cytotoxicity to HeLa (in words) (HeLa cells): no cytotoxicity
survival of HeLa (in words) (HeLa cells): unaffected

Cl.Cl.N[C@H](Cc1c[nH]c2ccccc12)C(=O)NCCCCCCCCCCCCNC(=O)[C@@H](N)Cc1c[nH]c2ccccc12 [Compound 10, (S)-1-((12-((R)-2-Ammonio-3-(1H-indol-3-yl)propanamido)dodecyl)amino)-3-(1H-indol-3-yl)-1-oxopropan-2-aminium chloride]
FIC (synergy with tetracycline) (Tet^R E. coli; at the tested concentrations, synergy FIC<1 (broad) or FIC≤0.5 (conservative)): ≥ 0.75
FIC (fractional inhibitory concentration) with tetracycline (Tet^R E. coli; [1]): 0.75
MIC [Tet] (tetracycline in the presence of the compound) (Tet^R E. coli; [1]): 450 µM
Fold Recovery of tetracycline activity (Tet^R E. coli; [2]): 2-fold
FIC (fractional inhibitory concentration) with tetracycline (Tet^R E. coli; [3]): 0.75
MIC [Tet] (tetracycline in the presence of the compound) (Tet^R E. coli; [3]): 225 µM
Fold Recovery of tetracycline activity (Tet^R E. coli; [4]): 4-fold
recovery of tetracycline activity (Tet^R E. coli; compound at ½ and ¼ of its MIC): 2 to 4 fold
cytotoxicity to HEK-293 (in words) (HEK-293 cells): minimally toxic
cytotoxicity to HeLa (in words) (HeLa cells): moderately toxic
